Reference: patent US6593365B1, “Diflunisal esters and related compounds” (The University of Queensland, priority 1997, dated 2003)
Several values for one entry are separate records, joined by “and”; a condition that tells them apart may be missing. Identical values can stand only once. Marks after values point to notes of the source that are not given here.

Assays:
[1] = Intrinsic (maximum) solubility in water at pH 1.5; assay type: physicochemical; details: for solubility: 25 °C, pH 1.5, simulated gastric fluid
Experimental: The pH conditions were chosen to ensure that the solubility of the unionised species was estimated. […] Lea & Febiger/Philadelphia. […] […] The solvent (9.9 mL) was then added to the test tube. […] The test tube was sonicated for 15 minutes and centrifuged for 10 minutes (3000 g at 25° C.). An aliquot was filtered (Minisart 0.45 μm filter, Satorius) and diluted with HPLC mobile phase, then assayed. The tube was stored carefully in a 25° C. water bath after sampling and the remaining suspension was again sonicated and the process repeated 7 times at four hourly intervals. In these assays, standard curves were prepared by directly dissolving the esters in mobile phase. Concentrations for standard curves ranged from 1-50 μg/mL for all compounds. Furthermore, a manual injector (Waters Model U6K) was used (20 μL sample loop) which ensured that 20 μL was consistently injected onto the column and precluded the need for an internal standard.

[2] = system: in-situ perfused rat liver; assay: In-situ rat liver perfusion bolus studies, moments and dispersion model analysis (Example 3); assay type: in vitro ADME, Sprague-Dawley rats; details: n = 3, Mean S.E.; for RN (efficiency number) / a (dispersion model): determined using equation 5 & 6; for CV^2 (normalized variance) / F (hepatic availability) / MTT (mean transit time): moments analysis, bolus, 30 mL/min; for CV^2 (normalized variance) / F (hepatic availability) / MTT (mean transit time) / Efflux rate coefficient (k2) / Elimination rate coefficient (kel) / Influx rate coefficient (k1): 2% BSA perfusate; for Efflux rate coefficient (k2) / Elimination rate coefficient (kel) / Influx rate coefficient (k1): two-compartment dispersion model fitting
Experimental: Mature female Sprague-Dawley rats were obtained from the University of Queensland Animal Breeding Facility and weighed between 180-270 grams. The animals were given access to a standard laboratory diet prior to experiment. Rats were anaesthetised by interperitoneal injection of pentobarbital sodium (60 mg/kg, Boehringer Ingelhein). […] The bile duct was cannulated with PE10 (Clay Adams, New Jersey). 0.025 gm/L taurocholic acid (Sigma Co., USA.) was dissolved in perfusate to stimulate bile production. The portal vein was then cannulated using a 16 G intravenous catheter and the liver was perfused via this cannula with 2% BSA Krebs-Henseleit bicarbonate buffer (pH 7.4) and oxygenated using a silastic tubing lung ventilated with carbogen (95% O2/5% CO2). The perfusion system used was non-recirculating and employed a peristaltic pump (Cole-Parmer, Illinois).
The animal was placed in a temperature controlled perfusion cabinet at 37° C. Liver viability was assessed by oxygen consumption, bile flow, diflunisal esters' extraction and macroscopic appearance.
Perfusions were made at 30 mL/min in each liver. After a 10 minute perfusion stabilization period, injectate (50 μL) containing Evans Blue (3 mg/mL) and [^3H]-water in a saturated solution of the particular O-acyl diflunisal ester or pregenerated diflunisal (which was injected as parent compound) in 2% BSA Krebs-Henseleit buffer, was injected into the liver with outlet samples collected via a fraction collector over one minute.
Aliquots (100 μL) of pooled perfusate samples were taken for Evans Blue spectrophotometric analysis and [^3H]-water scintillation counting before adjusting pH. These pooled samples were then acidified to pH 2.0 by addition of 1 M HCl and extracted into 2.5 volumes of ether. […] The ether fraction was then removed and reduced to approximately 100 μL by evaporation under air and prepared as before for HPLC analysis. A known concentration of each buffer solution of ester was concurrently extracted and assayed with the perfusate samples to assess the degree of spontaneous hydrolysis occurring over the duration of the extraction procedure. This non-enzymatic hydrolysis was converted for in the analysis. The total recovery of diflunisal esters extracted using this technique was >90%.
The F, MTT and CV^2 for the diflunisal esters (or pregenerated DF) and the reference solutes (EB and [^3H]-water) were determined from the outflow concentration versus time profile using equation (1)-(4), with the assistance of the Moments Calculator 2.2 program for Macintosh computer developed by Robert Purves (Purves RD, 1994, J. Pharm. Sci. 83 202-205). [formula] [formula]
where Q is the perfusate flow rate, D is the dose of diflunisal esters administered. The area under the concentration-time curve (AUC) and the first moment curve (AUMC) were estimated by the trapezoidal rule integration with appropriate modification for tail (Mellick et al., 1996, submitted for publication). [formula]
The moment data was further examined using the dispersion model of hepatic elimination which defines F of an extracted solute by the equation (Roberts et al., 1990, J. Pharmacokin. Biopharm. 18 209-234): [formula]
a={square root over (1+4RNDN)} (6)
DN is the dispersion number which describes the spread of solute residence times in the liver following bolus input and equal half the normalized variance for a non-extracted reference indicator [formula]
RN is the efficiency number which characterises the elimination of solute by the liver and is defined by the equation: [formula]
(Gillette, 1971, Ann. N. Acad. Sci. 179 43-61)), and Q is the perfusate flow rate. If F for a solute and the CV^2 for a non-extracted reference solute (eg. EB) are known, we can solve for “a” using equation (5) and then for “RN” using equation (6).
The dispersion model expressions (Roberts et al., 1990) for MTT and CV^2 are presented in equations (8) and (9). [formula] [formula] […]

[3] = Maximum solubility in 2% BSA Krebs-Henseleit buffer (pH 7.4); assay type: physicochemical; details: 25 1° C.
Excerpt: The intrinsic solubility of diflunisal esters is extremely low (TABLE 2). The more lipophilic the analogue, the higher the solubility of solute under these conditions.

| Maximum solubility ([1]; water at pH 1.5, 25 1° C., U = Undetectable) [mM] | RN (efficiency number) [2] | a (dispersion model) [2] | CV^2 (normalized variance) [2] | F (hepatic availability) [2] | MTT (mean transit time) [2] [s] | RN/fub (removal of unbound solute) [2] | RN/fub (removal of unbound solute) ([2]; listed as acetyl) | Efflux rate coefficient (k2) [2] [s⁻¹] | Elimination rate coefficient (kel) [2] [s⁻¹] | Influx rate coefficient (k1) [2] | Maximum solubility [3] [mM] | Maximum solubility ([3]; mean standard deviation (n=3)) [µg/mL] | solubility [1] | RN/fub (removal of unbound solute) ([2]; listed as hexanoyl) | SMILES |
| --- | --- | --- | --- | --- | --- | --- | --- | --- | --- | --- | --- | --- | --- | --- | --- |
| 0.03 | 2.58 ± 0.02 | 2.26 ± 0.02^c | 0.70 ± 0.19 | 0.21 ± 0.03 | 10.36 ± 2.31 | 9.57 ± 0.37 | 9.57 | 0.25 ± 0.03 | 0.18 ± 0.02 | 1.20 ± 0.11 s⁻¹ | 7.57 | 2200 ± 70 | – | – | CC(=O)Oc1ccc(-c2ccc(F)cc2F)cc1C(=O)O [Compound C2D, acetyldiflunisal] |
| – | 1.56 ± 0.02 | 1.87 ± 0.01 | 1.01 ± 0.18 | 0.34 ± 0.01 | 7.73 ± 0.99 | 11.17 ± 0.38 | – | 0.08 ± 0.04 | 0.16 ± 0.07 | 0.41 ± 0.12 s⁻¹ | 12.38 | 3960 ± 80 | – | – | CCCC(=O)Oc1ccc(-c2ccc(F)cc2F)cc1C(=O)O [Compound C4D, n-butanoyldiflunisal] |
| – | 1.32 ± 0.03 | 1.77 ± 0.02 | 1.02 ± 0.33 | 0.38 ± 0.02 | 6.62 ± 0.84 | 11.04 ± 0.39 | – | 0.14 ± 0.07 | 0.18 ± 0.06 | 0.51 ± 0.16 s⁻¹ | 20.90 | 6980 ± 150 | – | – | CCCCC(=O)Oc1ccc(-c2ccc(F)cc2F)cc1C(=O)O [Compound C5D, n-pentanoyldiflunisal] |
| – | 1.32 ± 0.03 | 1.77 ± 0.03 | 1.15 ± 0.48 | 0.38 ± 0.04 | 6.19 ± 0.95 | 16.50 ± 0.22 | – | 0.06 ± 0.03 | 0.15 ± 0.03 | 0.63 ± 0.24 s⁻¹ | 44.77 | 15580 ± 300 | – | 16.50 | CCCCCC(=O)Oc1ccc(-c2ccc(F)cc2F)cc1C(=O)O [Compound C6D, n-hexanoyldiflunisal] |

Further lines, the molecule ahead of its results:

| SMILES | Maximum solubility ([1]; water at pH 1.5, 25 1° C., U = Undetectable) [mM] | RN (efficiency number) [2] | a (dispersion model) [2] | CV^2 (normalized variance) [2] | F (hepatic availability) [2] | MTT (mean transit time) [2] [s] | RN/fub (removal of unbound solute) [2] | RN/fub (removal of unbound solute) ([2]; listed as acetyl) | Efflux rate coefficient (k2) [2] [s⁻¹] | Elimination rate coefficient (kel) [2] [s⁻¹] | Influx rate coefficient (k1) [2] | Maximum solubility [3] [mM] | Maximum solubility ([3]; mean standard deviation (n=3)) [µg/mL] | solubility [1] | RN/fub (removal of unbound solute) ([2]; listed as hexanoyl) |
| --- | --- | --- | --- | --- | --- | --- | --- | --- | --- | --- | --- | --- | --- | --- | --- |
| CCCC(=O)Oc1ccccc1C(=O)O [Compound C4SA, n-butanoylsalicylic acid] | – | – | – | – | – | – | – | – | – | – | – | – | – | 570 µg/mL and 2700 µM | – |
| CCCCC(=O)Oc1ccccc1C(=O)O [Compound C5SA, n-pentanoylsalicylic acid] | – | – | – | – | – | – | – | – | – | – | – | – | – | 74 µg/mL and 330 µM | – |
| CCCCCC(=O)Oc1ccccc1C(=O)O [Compound C6SA, n-hexanoylsalicylic acid] | – | – | – | – | – | – | – | – | – | – | – | – | – | 19 µg/mL and 80 µM | – |
| O=C(O)c1cc(-c2ccc(F)cc2F)ccc1O [DF, 2′,4′-difluoro-4-hydroxy-3-biphenylcarboxylic acid, reference compound] | – | – | 1.33 ± 0.01 | 0.99 ± 0.27 | – | 6.80 ± 0.94 | 9.51 ± 0.18 | – | 0.02 ± 0.01 | 0.06 ± 0.01 | 0.18 ± 0.03^b sec^−1 | – | – | – | – |
